The source of these data is ChEMBL document CHEMBL1132748, “Synthesis and antiviral activities of N-9-oxypurine 1,3-dioxolane and 1,3-oxathiolane nucleosides” (2000).

The structures appear in SMILES notation. Calls of active or inactive are those of the source. The calls are words filed in the database; no cut-off is given here.

Test [1] concerns Human alphaherpesvirus 1. The test is described as follows: Anti-herpetic activity and cytotoxicity of compound was evaluated against HSV-1 (KOS strain) at concentration up to 100 ug/mL; inactive. It is filed as functional, organism-based.
The test system of test [2] is Human alphaherpesvirus 2. Description: Anti-herpetic activity and cytotoxicity of compound was evaluated against HSV-2 (186 strain) at concentration 100 ug/mL; inactive. The test is classed as functional, organism-based.
The next test has as its system Human betaherpesvirus 5. The test is described as follows: Anti-herpetic activity and cytotoxicity evaluated against HCMV-1 (WFI strain) in plaque reduction assay in vero cells and Flow 2002 (human fibroblast) cell; inactive. It is filed as functional, organism-based. Background: In a plaque reduction assay, fewer plaques than in the control indicate reduced infectivity or spread.

The test system of test [3] is Human immunodeficiency virus. Description: Antiviral activity was assessed against HIV in MT-4 (human T-helper) cells at a concentration up to 100 ug/mL; inactive. It is filed as functional, organism-based.
The species named for the next test is Homo sapiens. The test is described as follows: Cytotoxicity was assessed against in MT-4 (human T-helper) cells at a concentration up to 100 ug/mL; inactive. The test is classed as functional, cell-based.
Test [4] relates to Human alphaherpesvirus 2. Description: Anti-herpetic activity and cytotoxicity was evaluated against HSV-2 (186 strain) in plaque reduction assay in vero cells and Flow 2002 (human fibroblast) cell; inactive. It is filed as functional, organism-based.
A further test deals with Hepatitis B virus. Description: Antiviral activity was assessed against HBV in hepatoma cell line 2.2.15; inactive. The test is classed as functional, organism-based. The settings on record: HepG2 2.2.15.
Test [5] concerns Human alphaherpesvirus 1. Description: Anti-herpetic activity and cytotoxicity was evaluated against HSV-1 (KOS strain) in plaque reduction assay in vero cells and Flow 2002 (human fibroblast) cell; inactive. It is filed as functional, organism-based.
The subject of test [6] is Human immunodeficiency virus. Description: Cytotoxicity of compound was assessed against HIV in MT-4 (human T-helper) cells; inactive. The test is classed as functional.

Take `Nc1nc(O)c2ncn(O[C@@H]3COC(CO)O3)c2n1` (stereo not given in full): the outcome with Human alphaherpesvirus 1 [1] and in the test with Human alphaherpesvirus 2 [2] was inactive.

As to `COc1ncnc2c1ncn2O[C@@H]1CSC(CO)O1` (stereo not given in full), the result (in the test with Human betaherpesvirus 5; in [3]; in the test filed under Homo sapiens; in the test on Human alphaherpesvirus 2 [4]; in the test on Hepatitis B virus; in the test with Human alphaherpesvirus 1 [5]) was inactive.

For `COc1ncnc2c1ncn2O[C@H]1COC(CO)O1` (stereo not given in full), the outcome (with Human betaherpesvirus 5; in test [3]; in the test filed under Homo sapiens; in the test with Human alphaherpesvirus 2 [4]; with Hepatitis B virus; with Human alphaherpesvirus 1 [5]) was inactive.

For `OCC1O[C@H](On2cnc3c(O)ncnc32)CS1` (stereo not given in full), the outcome (in the test on Human betaherpesvirus 5; in test [3]; in the test filed under Homo sapiens; in the test with Human alphaherpesvirus 2 [4]; with Hepatitis B virus; in the test with Human alphaherpesvirus 1 [5]) was inactive.

For `OCC1O[C@@H](On2cnc3c(O)ncnc32)CS1` (stereo not given in full), the result (in the test with Human betaherpesvirus 5; in [3]; with Human alphaherpesvirus 2 [4]; in the test with Hepatitis B virus; with Human alphaherpesvirus 1 [5]) was inactive. Besides, in test [6], the CD50 came to 10 µg/mL.

With `OCC1OC[C@@H](On2cnc3c(Cl)ncnc32)O1` (stereo not given in full), the result (with Human betaherpesvirus 5; in [3]; in the test filed under Homo sapiens; in the test with Human alphaherpesvirus 2 [4]; in the test with Hepatitis B virus; in the test with Human alphaherpesvirus 1 [5]) was inactive.

For `Nc1ncnc2c1ncn2O[C@H]1COC(CO)O1` (stereo not given in full), the result (in the test on Human betaherpesvirus 5; in test [3]; in the test filed under Homo sapiens; with Human alphaherpesvirus 2 [4]; with Hepatitis B virus; with Human alphaherpesvirus 1 [5]) was inactive.

Consider `COc1ncnc2c1ncn2O[C@@H]1COC(CO)O1` (stereo not given in full), for which the result (in the test on Human betaherpesvirus 5; in [3]; in the test listed under Homo sapiens; with Human alphaherpesvirus 2 [4]; in the test with Hepatitis B virus; in the test with Human alphaherpesvirus 1 [5]) was inactive.

With `OCC1OC[C@@H](On2cnc3c(O)ncnc32)O1` (stereo not given in full), the outcome (with Human betaherpesvirus 5; in [3]; in the test listed under Homo sapiens; in the test with Human alphaherpesvirus 2 [4]; in the test on Hepatitis B virus; in the test on Human alphaherpesvirus 1 [5]) was inactive.

Take `Nc1ncnc2c1ncn2O[C@@H]1COC(CO)O1` (stereo not given in full): the result (with Human betaherpesvirus 5; in [3]; in the test listed under Homo sapiens; in the test with Human alphaherpesvirus 2 [4]; in the test with Hepatitis B virus; with Human alphaherpesvirus 1 [5]) was inactive.

For `OCC1O[C@@H](On2cnc3c(Cl)ncnc32)CS1` (stereo not given in full), the outcome (with Human betaherpesvirus 5; in test [3]; in the test filed under Homo sapiens; with Human alphaherpesvirus 2 [4]; with Hepatitis B virus; in the test with Human alphaherpesvirus 1 [5]) was inactive.

In the case of `COc1ncnc2c1ncn2O[C@H]1CSC(CO)O1` (stereo not given in full), the outcome (in the test on Human betaherpesvirus 5; in test [3]; in the test filed under Homo sapiens; with Human alphaherpesvirus 2 [4]; with Hepatitis B virus; in the test on Human alphaherpesvirus 1 [5]) was inactive.

Turning to `OCC1O[C@H](On2cnc3c(Cl)ncnc32)CS1` (stereo not given in full), the outcome (in the test on Human betaherpesvirus 5; in test [3]; in the test filed under Homo sapiens; with Human alphaherpesvirus 2 [4]; in the test on Hepatitis B virus; with Human alphaherpesvirus 1 [5]) was inactive.

Take `Nc1ncnc2c1ncn2O[C@H]1CSC(CO)O1` (stereo not given in full): the outcome (in the test with Human betaherpesvirus 5; in test [3]; in the test filed under Homo sapiens; in the test with Human alphaherpesvirus 2 [4]; with Hepatitis B virus; in the test with Human alphaherpesvirus 1 [5]) was inactive.

Consider `Nc1ncnc2c1ncn2O[C@@H]1CSC(CO)O1` (stereo not given in full), for which the outcome (with Human betaherpesvirus 5; in test [3]; in the test filed under Homo sapiens; with Human alphaherpesvirus 2 [4]; with Hepatitis B virus; in the test on Human alphaherpesvirus 1 [5]) was inactive.

Turning to `Nc1nc(O)c2ncn(O[C@H]3COC(CO)O3)c2n1` (stereo not given in full), the result in the test with Human alphaherpesvirus 1 [1] and with Human alphaherpesvirus 2 [2] was inactive.

With `OCC1OC[C@H](On2cnc3c(Cl)ncnc32)O1` (stereo not given in full), the result (with Human betaherpesvirus 5; in test [3]; in the test listed under Homo sapiens; with Human alphaherpesvirus 2 [4]; in the test with Hepatitis B virus; with Human alphaherpesvirus 1 [5]) was inactive.

Turning to `OCC1OC[C@H](On2cnc3c(O)ncnc32)O1` (stereo not given in full), the outcome (with Human betaherpesvirus 5; in test [3]; in the test filed under Homo sapiens; in the test on Human alphaherpesvirus 2 [4]; in the test with Hepatitis B virus; in the test with Human alphaherpesvirus 1 [5]) was inactive.
